# According to patent publication US20250179061A1 (SIRONAX LTD., priority 2022, published 2025):
# System: HT-29 cells
# Experiment: HT-29 necroptosis cell viability assay (TNF-α/SMAC mimetic/zVAD-FMK, CellTiter-Glo)
# Type: cell-based
# Details: HT-29 necroptosis cell viability assay; class symbols for IC50; read-out: Activity
# Outline: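 HT-29 cells (~5,000/well, overnight) in FBS-free McCoy's 5A with TNF-α 10 ng/ml, SMAC mimetic 6 μM and zVAD-FMK 10 μM plus 10-point 1:3 compound titration, 20 h at 37°C. ATP measured by CellTiter-Glo luminescence; IC50 as geometric mean of duplicates.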
row,SMILES,IC50
1,"Cc1nc(C2CC(C(N)=O)C2)sc1Oc1ccc(-n2ncn(Cc3c(F)cccc3F)c2=O)cc1F (centres unmarked) [Example 167, 3-(5-(4-(4-(2,6-difluorobenzyl)-5-oxo-4,5-dihydro-1H-1,2,4-triazol-1-yl)-2-fluorophenoxy)-4-methylthiazol-2-yl)cyclobutane-1-carboxamide]",< 100 nM

# Same assay, conditions: Homo sapiens, HT-29, HT-29 necroptosis cell viability assay; class symbols for IC50; read-out: Activity
row,SMILES,IC50
1,"CCOC(=O)c1cc(C)n(Cc2ccc(-n3ncn(Cc4c(F)cccc4F)c3=O)cc2F)c1 [Example 204, ethyl 1-(4-(4-(2,6-difluorobenzyl)-5-oxo-4,5-dihydro-1H-1,2,4-triazol-1-yl)-2-fluorobenzyl)-5-methyl-1H-pyrrole-3-carboxylate]",< 100 nM
2,"Cn1nccc1Cc1ccc(-n2ncn(Cc3c(F)cccc3F)c2=O)cc1 [Example 545, 4-(2,6-difluorobenzyl)-2-(4-((1-methyl-1H-pyrazol-5-yl)methyl)phenyl)-2,4-dihydro-3H-1,2,4-triazol-3-one]",< 100 nM
3,"O=c1n(Cc2c(F)cccc2F)cnn1-c1ccc(Oc2ccnc(N3CCOCC3)c2)cc1 [Example 526, 4-(2,6-difluorobenzyl)-2-(4-((2-morpholinopyridin-4-yl)oxy)phenyl)-2,4-dihydro-3H-1,2,4-triazol-3-one]",1000 to 10000 nM
4,"CN(CC1CCCO1)c1nccc(Oc2ccc(-n3ncn(Cc4c(F)cccc4F)c3=O)cc2)c1F (centres unmarked) [Example 487, 4-(2,6-difluorobenzyl)-2-(4-((3-fluoro-2-(methyl((tetrahydrofuran-2-yl)methyl)amino)pyridin-4-yl)oxy)phenyl)-2,4-dihydro-3H-1,2,4-triazol-3-one]",100 to 1000 nM
5,"Cc1nc(C(=O)N(C)C)sc1Oc1ccc(-n2ncn(Cc3c(F)cccc3F)c2=O)cc1F [Example 611, 5-(4-(4-(2,6-difluorobenzyl)-5-oxo-4,5-dihydro-1H-1,2,4-triazol-1-yl)-2-fluorophenoxy)-N,N,4-trimethylthiazole-2-carboxamide]",< 100 nM
6,"Cc1nc(C)n(Cc2ccc(-n3ncn(Cc4c(F)cccc4F)c3=O)cc2F)c1C#N [Example 123, 1-(4-(4-(2,6-difluorobenzyl)-5-oxo-4,5-dihydro-1H-1,2,4-triazol-1-yl)-2-fluorobenzyl)-2,4-dimethyl-1H-imidazole-5-carbonitrile]",100 to 1000 nM
7,"Cc1nc(C(=O)NCCN)sc1Oc1ccc(-n2ncn(Cc3ccccc3F)c2=O)cc1F [Example 148, N-(2-aminoethyl)-5-(2-fluoro-4-(4-(2-fluorobenzyl)-5-oxo-4,5-dihydro-1H-1,2,4-triazol-1-yl)phenoxy)-4-methylthiazole-2-carboxamide]",< 100 nM
8,"N#Cc1ccn(Cc2ccc(-n3ncn(Cc4c(F)cccc4F)c3=O)cc2)n1 [Example 209, 1-(4-(4-(2,6-difluorobenzyl)-5-oxo-4,5-dihydro-1H-1,2,4-triazol-1-yl)benzyl)-1H-pyrazole-3-carbonitrile]",< 100 nM
9,"COC(=O)c1cn(Cc2ccc(-n3ncn(Cc4c(F)cccc4F)c3=O)cc2F)c(C)n1 [Example 210, methyl 1-(4-(4-(2,6-difluorobenzyl)-5-oxo-4,5-dihydro-1H-1,2,4-triazol-1-yl)-2-fluorobenzyl)-2-methyl-1H-imidazole-4-carboxylate]",100 to 1000 nM
10,"Cc1c(I)ncn1Cc1ccc(-n2ncn(Cc3c(F)cccc3F)c2=O)cc1 [Example 539, 4-(2,6-difluorobenzyl)-2-(4-((4-iodo-5-methyl-1H-imidazol-1-yl)methyl)phenyl)-2,4-dihydro-3H-1,2,4-triazol-3-one]",< 100 nM
11,"Cc1nc(C(C)O)sc1Oc1ccc(-n2nc3n(c2=O)[C@H](c2ccccc2)CC3)cc1F (single isomer, unassigned) [Example 149]",< 100 nM

# Same assay, conditions: Homo sapiens, HT-29, HT-29 necroptosis cell viability, IC50 class symbols; read-out: Activity
row,SMILES,IC50
1,"CC(C)(C)OC(=O)NC1CN(c2cc(Oc3ccc(-n4ncn(Cc5c(F)cccc5F)c4=O)cc3)ccn2)C1 [Example 327, tert-butyl (1-(4-(4-(4-(2,6-difluorobenzyl)-5-oxo-4,5-dihydro-1H-1,2,4-triazol-1-yl)phenoxy)pyridin-2-yl)azetidin-3-yl)carbamate]",< 100 nM
2,"Cc1c(Oc2ccc(-n3ncn(Cc4c(F)cccc4F)c3=O)cc2F)ccnc1N1CC(C)(C#N)C1 [Example 227, 1-(4-(4-(4-(2,6-difluorobenzyl)-5-oxo-4,5-dihydro-1H-1,2,4-triazol-1-yl)-2-fluorophenoxy)-3-methylpyridin-2-yl)-3-methylazetidine-3-carbonitrile]",< 100 nM
3,"Cc1c(C#N)noc1Oc1ccc(-n2ncn(Cc3c(F)cccc3F)c2=O)cc1F [Example 475, 5-(4-(4-(2,6-difluorobenzyl)-5-oxo-4,5-dihydro-1H-1,2,4-triazol-1-yl)-2-fluorophenoxy)-4-methylisoxazole-3-carbonitrile]",< 100 nM
4,"CCOC1CN(c2ncnc(Oc3ccc(-n4ncn(Cc5c(F)cccc5F)c4=O)cc3)c2F)C1 [Example 234, 4-(2,6-difluorobenzyl)-2-(4-((6-(3-ethoxyazetidin-1-yl)-5-fluoropyrimidin-4-yl)oxy)phenyl)-2,4-dihydro-3H-1,2,4-triazol-3-one]",100 to 1000 nM
5,"O=c1n(Cc2c(F)cccc2F)cnn1-c1ccc(Oc2ccnc(NCC3CCC3)c2)cc1 [Example 342, 2-(4-((2-((cyclobutylmethyl)amino)pyridin-4-yl)oxy)phenyl)-4-(2,6-difluorobenzyl)-2,4-dihydro-3H-1,2,4-triazol-3-one]",100 to 1000 nM
6,"O=c1n(-c2ccc(Oc3ccncc3)cc2)nc(Cl)n1Cc1ccccc1 [Example 403, 4-benzyl-5-chloro-2-(4-(pyridin-4-yloxy)phenyl)-2,4-dihydro-3H-1,2,4-triazol-3-one]",100 to 1000 nM
7,"Cc1nc(C(C)(C)O)sc1Oc1ccc(-n2ncn(Cc3cc(F)ccc3F)c2=O)cc1F [Example 470, 4-(2,5-difluorobenzyl)-2-(3-fluoro-4-((2-(2-hydroxypropan-2-yl)-4-methylthiazol-5-yl)oxy)phenyl)-2,4-dihydro-3H-1,2,4-triazol-3-one]",< 100 nM
8,"CN(C)C1(C)CN(c2cc(Oc3ccc(-n4ncn(Cc5c(F)cccc5F)c4=O)cc3F)c(F)cn2)C1 [Example 371, 4-(2,6-difluorobenzyl)-2-(4-((2-(3-(dimethylamino)-3-methylazetidin-1-yl)-5-fluoropyridin-4-yl)oxy)-3-fluorophenyl)-2,4-dihydro-3H-1,2,4-triazol-3-one]",100 to 1000 nM
9,"Cc1c(Oc2ccc(-n3ncn(Cc4c(F)cccc4F)c3=O)cc2)ccnc1NC12CC(C#N)(C1)C2 [Example 247, 3-((4-(4-(4-(2,6-difluorobenzyl)-5-oxo-4,5-dihydro-1H-1,2,4-triazol-1-yl)phenoxy)-3-methylpyridin-2-yl)amino)bicyclo[1.1.1]pentane-1-carbonitrile]",< 100 nM

# Same assay, conditions: Homo sapiens; HT-29 cells stimulated with TNF-α (10 ng/ml), SMAC mimetic (6 μM) and zVAD-FMK (10 μM); 20 hours; CellTiter-Glo ATP luminescence; geometric mean IC50 from 10 points; read-out: Activity
row,SMILES,IC50
1,"Cc1nc(C2CC(C#N)C2)sc1Oc1ccc(-n2ncn(Cc3c(F)cccc3F)c2=O)cc1 (centres unmarked) [Example 39, 3-(5-(4-(4-(2,6-difluorobenzyl)-5-oxo-4,5-dihydro-1H-1,2,4-triazol-1-yl)phenoxy)-4-methylthiazol-2-yl)cyclobutane-1-carbonitrile]",< 100 nM
2,"Cc1nc(Oc2ccc(-n3ncn(Cc4c(F)cccc4F)c3=O)cc2)sc1C [Example 78, 4-(2,6-difluorobenzyl)-2-(4-((4,5-dimethylthiazol-2-yl)oxy)phenyl)-2,4-dihydro-3H-1,2,4-triazol-3-one]",100 to 1000 nM
3,"Cn1ncnc1Oc1ccc(-n2ncn(Cc3c(F)cccc3F)c2=O)cc1 [Example 94, 4-(2,6-difluorobenzyl)-2-(4-((1-methyl-1H-1,2,4-triazol-5-yl)oxy)phenyl)-2,4-dihydro-3H-1,2,4-triazol-3-one]",1000 to 10000 nM
4,"CCOC1CN(c2ncc(Oc3ccc(-n4ncn(Cc5c(F)cccc5F)c4=O)cc3)s2)C1 [Example 84, 4-(2,6-difluorobenzyl)-2-(4-((2-(3-ethoxyazetidin-1-yl)thiazol-5-yl)oxy)phenyl)-2,4-dihydro-3H-1,2,4-triazol-3-one]",< 100 nM
5,COC(=O)c1nc(C)c(Oc2ccc(-n3ncn(Cc4ncccc4F)c3=O)cc2F)s1 [Example 32],100 to 1000 nM
6,"Cc1nc(C#N)sc1Oc1ccc(-n2ncn(Cc3ncccc3Cl)c2=O)cc1F [Example 37, 5-(4-(4-((3-chloropyridin-2-yl)methyl)-5-oxo-4,5-dihydro-1H-1,2,4-triazol-1-yl)-2-fluorophenoxy)-4-methylthiazole-2-carbonitrile]",< 100 nM
7,"Cc1cc(C(N)=O)n(C)c1Oc1ccc(-n2nc3n(c2=O)[C@H](c2ccccc2)CC3)cc1F (single isomer, unassigned) [Example 697]",< 100 nM
8,"COC(=O)c1nc(C)c(Oc2ccc(-n3ncn(Cc4cc(Cl)ccn4)c3=O)cc2F)s1 [Example 10, methyl 5-(4-(4-((4-chloropyridin-2-yl)methyl)-5-oxo-4,5-dihydro-1H-1,2,4-triazol-1-yl)-2-fluorophenoxy)-4-methylthiazole-2-carboxylate]",1000 to 10000 nM
9,"COC1(C#N)CN(c2nc(C)c(Oc3ccc(-n4ncn(Cc5c(F)cccc5F)c4=O)cc3)s2)C1 [Example 55, 1-(5-(4-(4-(2,6-difluorobenzyl)-5-oxo-4,5-dihydro-1H-1,2,4-triazol-1-yl)phenoxy)-4-methylthiazol-2-yl)-3-methoxyazetidine-3-carbonitrile]",< 100 nM
10,"Cc1nc(C2(O)CC(OCc3ccccc3)C2)sc1Oc1ccc(-n2ncn(Cc3c(F)cccc3F)c2=O)cc1F (centres unmarked) [Example 112, 2-(4-((2-(3-(benzyloxy)-1-hydroxycyclobutyl)-4-methylthiazol-5-yl)oxy)-3-fluorophenyl)-4-(2,6-difluorobenzyl)-2,4-dihydro-3H-1,2,4-triazol-3-one]",100 to 1000 nM
11,"Cc1nc(N2C[C@@H](O)CC2=O)sc1Oc1ccc(-n2ncn(Cc3c(F)cccc3F)c2=O)cc1F [Example 76, (S)-4-(2,6-difluorobenzyl)-2-(3-fluoro-4-((2-(4-hydroxy-2-oxopyrrolidin-1-yl)-4-methylthiazol-5-yl)oxy)phenyl)-2,4-dihydro-3H-1,2,4-triazol-3-one]",< 100 nM
